Test results from US8338476B2, “Compositions and methods of sensitizing methicillin resistant Staphylococcus aureus to beta-lactam antibiotics” (priority 2005, dated 2012).
Like-named read-outs stand apart in the source and are kept apart here.

Columns and labels:
Format in all cases: cell-based, Staphylococcus aureus
[1] = system: EMRSA-16, EMRSA-15 and BB568; assay: Checkerboard MIC assay, results stated jointly for the three isolates
Description: (§1) Checkerboard MIC assays were performed in 96-well microtiter trays with an inoculum of about 10^4 CFU in 200 μl of Mueller-Hinton broth (Oxoid, Basingstoke, United Kingdom) supplemented with 2% NaCl. MIC values were obtained after incubation at 35° C. for 24 h. S. aureus ATCC29213 was used as the standard susceptible strain. Fractional inhibitory concentration (FIC) indices for triple combinations were calculated as follows: ΣFIC=FICOXA+FICB+FICC=[C^combOXA/MIC^OXA]+[C^combB/MICB]+[C^combC/MICC], where C^combB, and C^combc are the concentrations of catechins tested. […] For combinations of two compounds the term (C^combC/MICC) was omitted. An FIC index of ≦0.5 indicates synergy.

S. aureus BB568 = assay: Checkerboard MIC assay, sensitization to oxacillin; settings: for MIC: Staphylococcus aureus
Description: as §1

EMRSA-16 = assay: Checkerboard MIC assay, sensitization to oxacillin; settings: for MIC: Staphylococcus aureus
Description: MICs were then recorded and the experiments were repeated in the presence of the non-galloylated catechin epicatechin at varying concentrations between 0 mcg/ml and 50 mcg/ml.
as §1

[2] = system: mid-logarithmic EMRSA-16 cells; assay: Binding of catechins to S. aureus cells (HPLC assay of Kajiya et al); settings: for fraction of the catechin pool bound to / associated with the cells: catechin alone, 20 min incubation at 35° C.
Description: As S. aureus membranes are uniquely composed of phosphatidylglycerol (63-74%), lysylphosphatidylglycerol (17-22%), and cardiolipin (5-15%), the inventors determined the capacity of non-galloylated catechins to enhance ECG binding to S. aureus using the HPLC assay described by Kajiya et al (Kajiya, K., S. Kumazawa, and T. Nakayama. 2001. Steric effects on the interaction of tea catechins with lipid bilayers. Biosci. Biotechnol. Biochem. 65:2638-2643). EC, EGC, ECG and EGCG were provided by the Tokyo Food Techno Co. Ltd., Tokyo, Japan. S. aureus BB568 is a constitutive PBP2a producer (provided by B. Berger-Bächi, University of Zürich), and EMRSA-15 and EMRSA-16 were clinical isolates from the Royal Free Hospital, London. Binding of ECG to mid-logarithmic EMRSA-16 cells was enhanced by EC at concentrations of 25 mcg/ml. 13% of the EC pool bound after 20 min incubation at 35° C., and 22% of ECG was associated with the cells. In the presence of EC, ECG binding rose to 41%. […] EC appears, therefore, to facilitate ECG binding to staphylococcal cells as well as to PC and PE liposomes.

EMRSA-15 = assay: Checkerboard MIC assay, sensitization to oxacillin
Description: as §1

Question: Which “FIC index, triple combination with oxacillin and ECG” value ([1]; FIC index ≦0.5 indicates synergy) does the source give for `Oc1cc(O)c2c(c1)O[C@H](c1cc(O)c(O)c(O)c1)[C@H](O)C2` [EGC, epigallocatechin] here?
Answer: strong synergy

Question: What about the “effect on the capacity of ECG to reduce oxacillin resistance” value ([1]; in combination with ECG and oxacillin) of the same compound?
Answer: markedly enhanced

Question: What about the “enhancement of EGCG-mediated sensitization to oxacillin” value ([1]; in combination with EGCG and oxacillin, less than with ECG) of the same compound?
Answer: could enhance sensitization

Question: And the “effect of the non-galloylated catechin alone on the MIC of oxacillin” value ([1]; without ECG)?
Answer: unable to reduce the MIC of oxacillin

Question: How did the “effect of EGCG on the capacity of ECG to reduce the oxacillin MIC” value (S. aureus BB568; ECG 12.5 mg/ml) turn out when `O=C(O[C@@H]1Cc2c(O)cc(O)cc2O[C@@H]1c1cc(O)c(O)c(O)c1)c1cc(O)c(O)c(O)c1` [EGCG, epigallocatechin gallate] was run?
Answer: compromised the capacity of ECG to reduce the MICs

Question: And the “effect on oxacillin MIC when added to ECG” value (EMRSA-16; ECG 0-12.5 mcg/ml, added catechin 0-50 mcg/ml)?
Answer: substantially no significant and synergistic effect

Question: What about the “effect of EGCG on the capacity of ECG to reduce the oxacillin MIC” value (EMRSA-16; ECG 12.5 mg/ml) of the same compound?
Answer: compromised the capacity of ECG to reduce the MICs

Question: What about the “reduction of the oxacillin MIC by EGCG in the presence of ECG” value ([1]; ECG 3.12 mg/ml + EGCG 25 mg/ml, strain not stated) of the same compound?
Answer: twofold

Question: And the “sensitization to oxacillin by EGCG” value ([1]; EGCG without ECG, effect much less pronounced than with ECG)?
Answer: able to sensitize

Question: Which results are given for `O=C(O[C@@H]1Cc2c(O)cc(O)cc2O[C@@H]1c1ccc(O)c(O)c1)c1cc(O)c(O)c(O)c1` [ECG, epicatechin gallate]?
Answer: growth of EMRSA-16 in the absence of oxacillin (EMRSA-16; ECG ≧12.5 mg/ml with both EC and EGC ≧50 mg/ml, no oxacillin): inhibited the growth; ECG binding in the presence of EC ([2]; EC 25 mcg/ml, 20 min at 35° C.): 41%; fraction of the catechin pool bound to / associated with the cells [2]: 22%

Question: With `Oc1cc(O)c2c(c1)O[C@H](c1ccc(O)c(O)c1)[C@H](O)C2` [EC, epicatechin] as the compound, how does the “EC binding in the presence of ECG” value ([2]; 20 min at 35° C.) read?
Answer: 35.5%

Question: And the “fraction of the catechin pool bound to / associated with the cells” value [2]?
Answer: 13%

Question: Which “oxacillin MIC in the presence of ECG” value (EMRSA-15; ECG 3.12 mg/ml) does the source give for `Cc1onc(-c2ccccc2)c1C(=O)N[C@@H]1C(=O)N2[C@@H]1SC(C)(C)[C@@H]2C(=O)O` [oxacillin] here?
Answer: a similar effect was achieved

Question: And the MIC (EMRSA-15; Staphylococcus aureus, 24 h, read-out: MIC of oxacillin)?
Answer: 16 µg/mL

Question: What about the “oxacillin MIC in the presence of ECG” value (S. aureus BB568; ECG 12.5 mg/ml) of the same compound?
Answer: below the oxacillin breakpoint

Question: And the MIC (S. aureus BB568; BB568, read-out: oxacillin MIC in the presence of ECG and EC)?
Answer: 8 µg/mL

Question: And the MIC (S. aureus BB568; BB568, read-out: oxacillin MIC in the presence of ECG and EC, ECG 3.12 mg/ml + EC 25 mg/ml)?
Answer: 2 µg/mL

Question: What about the “oxacillin MIC in the presence of ECG” value (EMRSA-16; ECG 12.5 mg/ml) of the same compound?
Answer: below the oxacillin breakpoint

Question: And the MIC (EMRSA-16; read-out: oxacillin MIC in the presence of ECG and EC, ECG 3.12 mg/ml + EC 25 mg/ml)?
Answer: 2 µg/mL

Question: What about the MIC (EMRSA-16; read-out: oxacillin MIC in the presence of ECG and EC, ECG 3.12 mcg/ml + EC 6.25 mcg/ml) of the same compound?
Answer: 8 µg/mL
